Each structure is given as a SMILES string.

Broadly, the melting point is the temperature, or range, at which the solid turns liquid.

Turning to `N#Cc1cc(Br)ccc1S(=O)(=O)Cl`, the melting point was 94 to 96 °C.

In turn, `COC(=O)NCCC(=O)O` returned a melting point of 75 to 77 °C.

`O=C(O)c1ccc(S)cc1Cl` returned a melting point of 184 to 186 °C.

The molecule `N#CCC(=O)c1ccc(F)c(F)c1` returned a melting point of 67 to 69 °C.

`COc1ccc(CCNC(C)=O)cc1S(=O)(=O)Cl`: the melting point lay within 76 to 78 °C.

`O=C(CCl)NCC1(c2ccccc2)CCCCC1` had a melting point of 54 to 56 °C.

With `Cc1nn(-c2ccc(F)cc2)c2[nH]nc(N)c12`, the melting point was 168 to 170 °C.

Turning to `Cn1cc(C(=O)O)c(=O)c2cc(Cl)ccc21`, the melting point lay within 302 to 304 °C.

`O=C(O)c1ccc(I)c(Cl)c1` displayed a melting point of 218 to 220 °C.

`O=C(O)Cc1cnc2ccccc2c1`: the melting point was in the range of 201 to 203 °C.

`NS(=O)(=O)c1cc(Br)ccc1Br` showed a melting point of 199 to 201 °C.

In turn, `O=C1CNC2CCCCC2N1` (stereo unspecified) had a melting point of 121 to 123 °C.

`COc1ccc(C(=O)O)cc1S(=O)(=O)N(C)Cc1ccccc1` came in with a melting point of 180 to 182 °C.

`O=C(O)c1ccc(S(=O)(=O)Cl)s1` came in with a melting point of 119 to 121 °C.

Take `CC(C)(C)OC(=O)C(C#N)c1ccc([N+](=O)[O-])cn1` (stereo unspecified): the melting point fell in the range of 168 to 170 °C.

`CCOC(=O)/C(C#N)=C\Nc1ccccc1CC` showed a melting point of 124 to 126 °C.

For `O=c1[nH]c(-c2cnccn2)no1`, the melting point fell in the range of 232 to 234 °C.

`COc1ccc(C)nc1N` came in with a melting point of 87 to 89 °C.

`O=C(Nc1sccc1C(=O)O)c1ccc(Cl)cc1O`: the melting point is 244 to 246 °C.

`NS(=O)(=O)c1cccc2ncccc12` had a melting point of 179 to 181 °C.

`O=C(O)Cc1csc(-c2ccc(Br)s2)n1`: the melting point was 142 to 144 °C.

Consider `COc1ccc(C(=O)Nc2cc(F)ccc2C(=O)O)cc1`, for which the melting point was in the range of 225 to 227 °C.

With `CS(=O)(=O)N1CCCc2cc(C(=O)CCl)ccc21`, the melting point was 118 to 120 °C.

For `CN(C)c1nc(CC#N)nc(=N)[nH]1`, the melting point lay in the range of 139 to 141 °C.

Consider `O=C(O)Cc1ccc(NS(=O)(=O)c2ccc(Cl)c(Cl)c2)cc1`, for which the melting point is 174 to 176 °C.

In turn, `O=C(O)c1ccc2c(c1)C(=O)NC2=O` displayed a melting point of 267 to 269 °C.

`NNC(=O)c1ccc2c(=O)n3c(nc2c1)CCC3` yielded a melting point of 268 to 270 °C.

Molecule `CCOC(C)c1nc(C)c(C(=O)O)s1` (stereo unspecified) registered a melting point of 112 to 114 °C.

In turn, `Nc1ccc(N2CCOCC2)c(S(=O)(=O)Nc2ccccc2Cl)c1` gave a melting point of 219 to 221 °C.

With `Nc1cc(-c2ccccc2I)no1`, the melting point is 120 to 122 °C.

Turning to `Cc1ccc(Cl)c(N)c1C(=O)O`, the melting point fell in the range of 119 to 121 °C.

In turn, `Cc1ccc(C(=O)c2ccccc2C(=O)O)cc1C` showed a melting point of 166 to 168 °C.

`O=C(O)c1ccc(CNC(=O)c2cccs2)cc1` showed a melting point of 209 to 211 °C.

Consider `O=C(O)c1ccc(Oc2cccc(F)c2)cc1`, for which the melting point fell in the range of 146 to 148 °C.

The molecule `O=C(O)C(=Cc1ccco1)NC(=O)c1ccccc1` displayed a melting point of 209 to 211 °C.

As for `Nc1ccc(C(=O)N2CCCCC2)c(Cl)c1`, the melting point was in the range of 148 to 150 °C.

Regarding `CC(O)c1ccc(-n2cncn2)cc1` (stereo unspecified), the melting point lay in the range of 90 to 92 °C.

On to `N#CCC(=O)c1ccsc1`, for which the melting point lay in the range of 92 to 94 °C.

Take `COc1cc(F)cc(F)c1S(=O)(=O)Cl`: the melting point is 75 to 77 °C.

As for `NC(=NO)c1cnccn1`, the melting point lay in the range of 182 to 184 °C.

Take `CNCCC1CCN(C2CCN(C)CC2)CC1`: the melting point was in the range of 48 to 50 °C.

As to `COc1cc(SC#N)ccc1O`, the melting point was 78 to 80 °C.

Molecule `O=Cc1ccc(F)c2cccnc12` showed a melting point of 113 to 115 °C.

On to `CCOc1ccccc1Oc1ccccc1C(=O)O`, for which the melting point fell in the range of 96 to 98 °C.

`O=C(O)c1cnn(Cc2ccccc2)c1` returned a melting point of 149 to 151 °C.

With `Cc1cc(S(N)(=O)=O)sc1Br`, the melting point was in the range of 149 to 151 °C.

As to `O=C(O)c1ccc(F)cc1S`, the melting point fell in the range of 171 to 173 °C.

`O=C(O)c1cc(-c2ccc(Cl)cc2)nc2ccccc12` displayed a melting point of 244 to 246 °C.

On to `CCc1noc(-c2ccc(N)c(Cl)c2)n1`, for which the melting point was in the range of 89 to 91 °C.

Consider `Cc1c(CCC(=O)O)cnn1C`, for which the melting point lay in the range of 139 to 141 °C.

For `O=C(NC1CCNCC1)c1ccccc1`, the melting point lay in the range of 138 to 140 °C.

On to `CS(=O)(=O)c1ccc(CCN)cc1`, for which the melting point fell in the range of 76 to 78 °C.

Turning to `CCOC(=O)c1c(N)sc2c1CCC(CC)C2` (stereo unspecified), the melting point was 88 to 90 °C.

As for `Cc1nn(-c2cccc(Cl)c2)c2sc(C(=O)O)cc12`, the melting point lay within 268 to 270 °C.

Molecule `CCC(=CC(=O)O)c1ccc(C)cc1` had a melting point of 116 to 118 °C.

With `CC1(C)Cc2ccc(Cl)cc2C1O` (stereo unspecified), the melting point was in the range of 94 to 96 °C.

As to `O=C(O)c1cc(Br)cc(S(=O)(=O)Cl)c1`, the melting point fell in the range of 154 to 156 °C.

In turn, `Cc1ccc(S(=O)(=O)Nc2ccc(Cl)cc2)cc1N` came in with a melting point of 104 to 106 °C.

`O=C(O)c1cccnc1Oc1cccc(Br)c1` gave a melting point of 167 to 169 °C.

`CNC(=O)c1ccc(C)c(N)c1` came in with a melting point of 167 to 169 °C.

Take `CN(Cc1ccccc1)C(=O)c1ccccc1C(=O)O`: the melting point lay in the range of 153 to 155 °C.

`Cc1sc(N)nc1Cc1ccccc1` displayed a melting point of 75 to 77 °C.

On to `O=C(O)c1csc(Cc2cccc(F)c2)n1`, for which the melting point is 149 to 151 °C.

As to `OC(c1ccccc1)c1nccs1` (stereo unspecified), the melting point is 99 to 101 °C.

For `c1cnc2c(c1)NCCC2`, the melting point was in the range of 103 to 105 °C.

In turn, `NC(=O)c1cccc2cccnc12` gave a melting point of 168 to 170 °C.

As to `O=C(O)CCS(=O)c1ccc2c(c1)OCCO2` (stereo unspecified), the melting point lay in the range of 110 to 112 °C.

`CSc1ccc(-c2nc(=N)s[nH]2)cc1` gave a melting point of 189 to 191 °C.

`NCc1cc(=O)n2ccccc2n1` gave a melting point of 123 to 125 °C.

For the molecule `Brc1ccc(-n2cnnn2)cc1`, the melting point lay within 180 to 182 °C.

As for `O=C(O)C1CCN(S(=O)(=O)c2ccc3c(c2)CCC3)CC1`, the melting point was in the range of 170 to 172 °C.

Turning to `O=c1cc(I)cnn1Cc1ccccc1`, the melting point lay within 156 to 158 °C.

For `CC(CC(=O)O)c1ccccc1Br` (stereo unspecified), the melting point is 61 to 63 °C.

Turning to `CN1CCCN(C(=O)c2ccccc2N)CC1`, the melting point fell in the range of 80 to 82 °C.

The molecule `COc1ccccc1NC(=O)c1ccc(NC(=O)CCl)cc1` came in with a melting point of 103 to 106 °C.

`Nc1nc(-c2ccc(Oc3ccccc3)cc2)cs1`: the melting point is 195 to 197 °C.

`N#CC1(N)CCCCC1` had a melting point of 25 to 27 °C.

With `Cc1nn(-c2ccc(F)cc2)c2ncc(C(=O)O)cc12`, the melting point lay in the range of 347 to 349 °C.

As for `COC(=O)CNS(=O)(=O)c1ccc(N)cc1`, the melting point is 78 to 80 °C.

`CC(O)c1ccc(N2CCNC(=O)C2)cc1Cl` (stereo unspecified) showed a melting point of 186 to 188 °C.

Molecule `Cc1cc(C)nc(-n2nc(N)cc2C)n1` gave a melting point of 134 to 136 °C.

In turn, `Cc1ccc(Nc2nc(N)nc(CCl)n2)cc1` displayed a melting point of 158 to 160 °C.

The molecule `N#CCc1c[nH]c2cc(Cl)ccc12` registered a melting point of 99 to 101 °C.

`CC(=O)c1ccc(S(=O)(=O)CC(F)(F)F)cc1`: the melting point was in the range of 102 to 104 °C.

`Cc1cc(N)n(C2CCOCC2)n1`: the melting point lay within 177 to 179 °C.

Turning to `COc1ccccc1-c1c[nH]cc1C(=O)O`, the melting point fell in the range of 195 to 197 °C.
